# Measurements: patent US9493455B2, “Azaindole derivatives as inhibitors of protein kinases” (ORIBASE PHARMA, priority 2012, dated 2016)
# Columns and labels:
# [1] = biological target: T1, BRAF (Homo sapiens, UniProt P15056); assay: In vitro kinase assay (Z′-LYTE); assay type: biochemical; conditions: compound 100 nM; ATP 100 μM; read-out: % of inhibition of the kinase compared to the control
# T1 construct: purchased Invitrogen
# Summary of the method: (§1)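 Peptide/kinase mix combined with ATP (apparent Km) in 50 mM HEPES pH 7.5, 10 mM MgCl2, 1 mM EGTA, 0.01% BRIJ-35; compound present at 100 nM, except 10 μM for ABL T315I; DMSO 1% final. Protease development, then FRET emission ratio.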
# [2] = biological target: T2, SRC (Homo sapiens, UniProt P12931); assay: In vitro kinase assay (Z′-LYTE); assay type: biochemical; conditions: read-out: % of inhibition of the kinase compared to the control
# T2 construct: purchased Invitrogen
# T2 sequence (P12931 whole entry): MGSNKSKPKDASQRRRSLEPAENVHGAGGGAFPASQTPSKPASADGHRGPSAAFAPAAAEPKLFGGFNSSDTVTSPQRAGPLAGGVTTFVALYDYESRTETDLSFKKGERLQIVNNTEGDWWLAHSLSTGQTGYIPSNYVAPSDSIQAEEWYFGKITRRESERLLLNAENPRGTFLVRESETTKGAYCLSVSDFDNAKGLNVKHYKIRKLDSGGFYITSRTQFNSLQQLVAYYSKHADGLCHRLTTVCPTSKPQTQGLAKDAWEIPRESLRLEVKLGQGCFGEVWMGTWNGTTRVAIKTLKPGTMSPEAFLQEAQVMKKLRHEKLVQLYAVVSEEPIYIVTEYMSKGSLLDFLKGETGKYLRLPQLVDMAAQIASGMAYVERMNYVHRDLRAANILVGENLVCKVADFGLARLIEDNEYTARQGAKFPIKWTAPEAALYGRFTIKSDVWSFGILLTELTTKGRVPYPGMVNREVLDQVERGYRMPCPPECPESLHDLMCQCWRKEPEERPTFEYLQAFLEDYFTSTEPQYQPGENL
# Summary of the method: as §1
# [3] = biological target: T3, PDGFRB (Homo sapiens, UniProt P09619); assay: In vitro kinase assay (Z′-LYTE); assay type: biochemical; conditions: read-out: % of inhibition of the kinase compared to the control
# T3 construct: purchased Invitrogen
# T3 sequence (P09619 33-1106): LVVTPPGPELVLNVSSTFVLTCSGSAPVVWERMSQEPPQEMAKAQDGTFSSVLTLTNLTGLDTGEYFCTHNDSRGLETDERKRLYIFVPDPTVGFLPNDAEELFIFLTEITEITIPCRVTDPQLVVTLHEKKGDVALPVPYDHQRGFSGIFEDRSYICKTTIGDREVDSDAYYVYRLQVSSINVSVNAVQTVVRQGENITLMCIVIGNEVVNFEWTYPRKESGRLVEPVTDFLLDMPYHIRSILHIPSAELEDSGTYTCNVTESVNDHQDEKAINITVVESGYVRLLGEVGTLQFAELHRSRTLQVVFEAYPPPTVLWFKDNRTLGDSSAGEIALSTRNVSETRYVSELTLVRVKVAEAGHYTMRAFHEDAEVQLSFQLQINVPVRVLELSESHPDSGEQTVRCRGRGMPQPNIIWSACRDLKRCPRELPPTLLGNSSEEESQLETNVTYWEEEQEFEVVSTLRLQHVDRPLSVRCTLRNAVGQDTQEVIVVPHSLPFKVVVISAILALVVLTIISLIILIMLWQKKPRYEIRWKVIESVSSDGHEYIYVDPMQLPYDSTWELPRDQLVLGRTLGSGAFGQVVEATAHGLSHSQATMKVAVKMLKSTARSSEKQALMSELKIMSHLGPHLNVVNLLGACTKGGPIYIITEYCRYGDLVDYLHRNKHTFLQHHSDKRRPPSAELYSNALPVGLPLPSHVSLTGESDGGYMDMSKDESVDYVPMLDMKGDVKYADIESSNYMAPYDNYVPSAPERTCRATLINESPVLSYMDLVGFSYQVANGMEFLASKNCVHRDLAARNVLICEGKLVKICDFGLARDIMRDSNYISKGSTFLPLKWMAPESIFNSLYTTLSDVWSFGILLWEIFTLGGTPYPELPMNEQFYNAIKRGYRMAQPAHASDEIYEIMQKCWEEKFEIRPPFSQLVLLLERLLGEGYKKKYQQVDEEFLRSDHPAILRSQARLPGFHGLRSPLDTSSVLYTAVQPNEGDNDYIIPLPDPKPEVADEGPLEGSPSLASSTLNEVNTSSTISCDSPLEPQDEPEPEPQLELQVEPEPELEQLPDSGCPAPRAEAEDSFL
# Summary of the method: as §1
# [4] = biological target: T4, ABL T315I (Homo sapiens, UniProt P00519, T315I); assay: In vitro kinase assay (Z′-LYTE); assay type: biochemical; conditions: read-out: % of inhibition of the kinase compared to the control
# T4 construct: purchased Invitrogen
# Summary of the method: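 Inhibition measured at a single dose, 100 nM, or 10 μM for ABL T315I. Z′-LYTE format with ATP at apparent Km; emission ratio of donor to acceptor quantifies phosphorylation.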
# [5] = biological target: T5, KDR (VEGFR2) (Homo sapiens, UniProt P35968); assay: In vitro kinase assay (Z′-LYTE); assay type: biochemical; conditions: read-out: % of inhibition of the kinase compared to the control
# T5 construct: purchased Invitrogen
# Summary of the method: as §1
# [6] = biological target: T6, PDGFRA (PDGFR alpha) (Homo sapiens, UniProt P16234); assay: In vitro kinase assay (Z′-LYTE); assay type: biochemical; conditions: read-out: % of inhibition of the kinase compared to the control
# T6 construct: purchased Invitrogen
# Summary of the method: as §1
# [7] = biological target: T7, VEGFR1 (Homo sapiens, UniProt P17948); assay: In vitro kinase assay (Z′-LYTE); assay type: biochemical; conditions: read-out: % of inhibition of the kinase compared to the control
# T7 construct: purchased Invitrogen
# Summary of the method: as §1
# [8] = biological target: T8, EGFR (ErbB1) (Homo sapiens, UniProt P00533); assay: In vitro kinase assay (Z′-LYTE); assay type: biochemical; conditions: read-out: % of inhibition of the kinase compared to the control
# T8 construct: purchased Invitrogen
# T8 sequence (P00533 25-1210): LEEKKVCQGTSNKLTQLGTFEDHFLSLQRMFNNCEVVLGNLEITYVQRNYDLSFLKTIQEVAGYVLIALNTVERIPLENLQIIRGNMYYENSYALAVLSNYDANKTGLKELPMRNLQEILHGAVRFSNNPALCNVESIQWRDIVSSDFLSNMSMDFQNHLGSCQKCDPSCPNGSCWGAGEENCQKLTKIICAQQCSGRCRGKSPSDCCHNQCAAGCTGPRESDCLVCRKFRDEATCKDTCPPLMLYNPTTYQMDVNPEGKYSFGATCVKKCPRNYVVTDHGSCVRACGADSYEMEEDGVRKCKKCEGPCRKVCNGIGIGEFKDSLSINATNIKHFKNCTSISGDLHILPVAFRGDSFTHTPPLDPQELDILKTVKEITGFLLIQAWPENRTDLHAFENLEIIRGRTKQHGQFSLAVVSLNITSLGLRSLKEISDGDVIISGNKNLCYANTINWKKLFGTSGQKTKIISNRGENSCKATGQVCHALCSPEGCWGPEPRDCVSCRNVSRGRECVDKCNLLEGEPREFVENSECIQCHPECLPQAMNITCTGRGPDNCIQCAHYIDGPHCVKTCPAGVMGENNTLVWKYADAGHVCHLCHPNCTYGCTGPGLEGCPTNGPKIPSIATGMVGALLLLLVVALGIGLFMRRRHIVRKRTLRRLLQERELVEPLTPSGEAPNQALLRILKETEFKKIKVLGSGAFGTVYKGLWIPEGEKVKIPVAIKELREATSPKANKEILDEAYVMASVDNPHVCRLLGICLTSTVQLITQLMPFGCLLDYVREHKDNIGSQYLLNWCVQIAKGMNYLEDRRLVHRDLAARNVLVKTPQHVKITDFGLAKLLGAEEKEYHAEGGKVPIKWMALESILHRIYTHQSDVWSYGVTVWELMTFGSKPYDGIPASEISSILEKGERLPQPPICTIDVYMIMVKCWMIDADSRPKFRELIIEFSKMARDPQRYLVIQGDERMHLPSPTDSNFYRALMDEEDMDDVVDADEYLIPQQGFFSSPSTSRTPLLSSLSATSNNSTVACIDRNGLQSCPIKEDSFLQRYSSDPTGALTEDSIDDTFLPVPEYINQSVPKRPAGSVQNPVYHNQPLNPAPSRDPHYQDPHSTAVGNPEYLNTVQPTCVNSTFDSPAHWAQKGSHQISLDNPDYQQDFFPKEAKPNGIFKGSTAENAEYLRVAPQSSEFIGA
# Summary of the method: as §1
# [9] = biological target: T9, ABL (Homo sapiens, UniProt P00519); assay: In vitro kinase assay (Z′-LYTE); assay type: biochemical; conditions: read-out: % of inhibition of the kinase compared to the control
# T9 construct: purchased Invitrogen
# [10] = biological target: T10, FGFR2 (Homo sapiens, UniProt P21802); assay: In vitro kinase assay (Z′-LYTE); assay type: biochemical; conditions: read-out: % of inhibition of the kinase compared to the control
# T10 construct: purchased Invitrogen
# Summary of the method: as §1
# [11] = biological target: T11, EGFR (ErbB1) T790M L858R (Homo sapiens, UniProt P00533, L858R/T790M); assay: In vitro kinase assay (Z′-LYTE); assay type: biochemical; conditions: read-out: % of inhibition of the kinase compared to the control
# T11 construct: purchased Invitrogen
# Summary of the method: as §1
# [12] = biological target: T12, FGFR1 (Homo sapiens, UniProt P11362); assay: In vitro kinase assay (Z′-LYTE); assay type: biochemical; conditions: read-out: % of inhibition of the kinase compared to the control
# T12 construct: purchased Invitrogen
# T12 sequence (P11362 22-822): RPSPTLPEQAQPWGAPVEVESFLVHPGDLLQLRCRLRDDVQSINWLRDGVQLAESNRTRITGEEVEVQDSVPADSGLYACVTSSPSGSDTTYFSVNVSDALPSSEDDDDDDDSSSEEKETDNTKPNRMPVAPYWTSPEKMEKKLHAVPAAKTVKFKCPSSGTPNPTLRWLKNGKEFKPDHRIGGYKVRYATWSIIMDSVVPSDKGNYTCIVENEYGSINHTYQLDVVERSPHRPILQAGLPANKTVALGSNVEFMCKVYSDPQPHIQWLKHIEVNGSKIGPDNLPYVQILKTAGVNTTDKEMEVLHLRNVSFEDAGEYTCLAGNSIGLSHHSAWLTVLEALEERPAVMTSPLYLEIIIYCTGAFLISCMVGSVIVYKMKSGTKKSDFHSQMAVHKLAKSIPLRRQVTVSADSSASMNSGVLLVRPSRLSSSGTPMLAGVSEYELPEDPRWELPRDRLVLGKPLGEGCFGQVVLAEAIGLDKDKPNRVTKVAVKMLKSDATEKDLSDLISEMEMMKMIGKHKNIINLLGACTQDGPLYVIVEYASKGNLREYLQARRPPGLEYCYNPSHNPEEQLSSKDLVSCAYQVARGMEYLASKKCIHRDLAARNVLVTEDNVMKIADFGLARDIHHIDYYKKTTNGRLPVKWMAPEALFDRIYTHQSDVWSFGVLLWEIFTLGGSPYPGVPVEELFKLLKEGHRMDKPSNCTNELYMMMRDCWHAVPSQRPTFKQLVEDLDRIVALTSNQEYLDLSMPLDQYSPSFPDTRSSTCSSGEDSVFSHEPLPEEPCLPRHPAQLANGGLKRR
# Summary of the method: as §1
# [13] = tested on: HT29; assay: In vitro cell proliferation assay (MTT); assay type: cell-based; conditions: Homo sapiens, HT-29, 72 h
# Summary of the method: (§2)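 Seed 5×10^3 cells per well. Add compound at rising doses (10 nM to 3 μM), run in duplicate. Incubate 72 hr, then quantify growth with MTT.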
# [14] = tested on: H1975; assay: In vitro cell proliferation assay (MTT); assay type: cell-based; conditions: Homo sapiens, NCI-H1975, 72 h
# Summary of the method: as §2
# [15] = tested on: A549; assay: In vitro cell proliferation assay (MTT); assay type: cell-based; conditions: Homo sapiens, A549, 72 h
# Summary of the method: as §2
# [16] = tested on: PC-3; assay: In vitro cell proliferation assay (MTT); assay type: cell-based; conditions: Homo sapiens, PC-3, 72 h
# Summary of the method: as §2
# [17] = tested on: HepG2; assay: In vitro cell proliferation assay (MTT); assay type: cell-based; conditions: Homo sapiens, HepG2, 72 h
# Summary of the method: as §2
# [18] = tested on: BxPC-3; assay: In vitro cell proliferation assay (MTT); assay type: cell-based; conditions: Homo sapiens, BXPC-3, 72 h
# Summary of the method: as §2
# [19] = tested on: MDA-MB-231; assay: In vitro cell proliferation assay (MTT); assay type: cell-based; conditions: Homo sapiens, MDA-MB-231, 72 h
# Summary of the method: as §2
# [20] = tested on: HUVEC; assay: In vitro cell proliferation assay (MTT); assay type: cell-based; conditions: Homo sapiens, 72 h
# Experimental: Cancer cell lines (5×10^3 cells per well) or HUVEC (1×10^4 cells per well) or HRMEC (1×10^4 cells per well) were distributed in 96-well plates and incubating in duplicate with escalating concentrations (10 nM to 3 μM) of compounds for 72 hr. Cell proliferation was measured using MTT (3 [4,5-dimethylthiazol-2-yl]-2,5-diphenyltetrazolium bromide).
# [21] = tested on: HeLa; assay: In vitro cell proliferation assay (MTT); assay type: cell-based; conditions: Homo sapiens, 72 h
# Summary of the method: as §2
# [22] = tested on: HuCCT1; assay: In vitro cell proliferation assay (MTT); assay type: cell-based; conditions: Homo sapiens, HuCCT-1, 72 h
# Summary of the method: as §2
# T1 sequence (P15056 whole entry): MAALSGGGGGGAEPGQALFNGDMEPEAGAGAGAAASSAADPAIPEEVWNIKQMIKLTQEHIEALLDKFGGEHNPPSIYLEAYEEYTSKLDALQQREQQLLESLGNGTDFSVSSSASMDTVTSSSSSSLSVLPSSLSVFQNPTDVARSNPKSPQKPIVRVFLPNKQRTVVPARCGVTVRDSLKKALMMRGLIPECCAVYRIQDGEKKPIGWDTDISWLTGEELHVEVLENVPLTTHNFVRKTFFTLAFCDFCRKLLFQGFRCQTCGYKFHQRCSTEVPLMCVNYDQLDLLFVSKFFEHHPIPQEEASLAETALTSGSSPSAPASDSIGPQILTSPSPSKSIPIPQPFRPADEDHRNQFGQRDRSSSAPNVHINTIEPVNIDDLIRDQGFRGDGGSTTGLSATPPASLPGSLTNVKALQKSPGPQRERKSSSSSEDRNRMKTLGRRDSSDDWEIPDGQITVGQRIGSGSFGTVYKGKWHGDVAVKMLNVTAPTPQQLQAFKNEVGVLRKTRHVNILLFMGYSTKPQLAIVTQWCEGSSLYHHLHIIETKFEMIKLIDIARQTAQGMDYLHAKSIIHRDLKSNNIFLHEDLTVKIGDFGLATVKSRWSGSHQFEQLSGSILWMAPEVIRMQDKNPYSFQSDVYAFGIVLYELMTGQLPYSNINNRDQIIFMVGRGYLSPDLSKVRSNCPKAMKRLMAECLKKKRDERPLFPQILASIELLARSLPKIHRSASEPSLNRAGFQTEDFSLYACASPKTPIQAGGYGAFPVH
Structure (SMILES),inhibition at 0.1 µM [1],inhibition at 0.1 µM [2],inhibition at 0.1 µM [3],inhibition at 10 µM [4],inhibition at 0.1 µM [5],inhibition at 0.1 µM [6],inhibition at 0.1 µM [7],inhibition at 0.1 µM [8],inhibition at 10 µM [9],inhibition at 0.1 µM [10],inhibition at 0.1 µM [11],inhibition at 0.1 µM [12],EC50 [13],EC50 [14],EC50 [15],EC50 [16],EC50 [17],EC50 [19],EC50 [20],EC50 [21],also measured
COC(=O)c1cc2cc(NCc3cc(NC(=O)c4cc(N(C)C)cc(C(F)(F)F)c4)ccc3C)cnc2[nH]1 [OR0597],< 50%,≥ 50%,< 50%,≥ 50%,< 50%,< 50%,< 50%,< 50%,≥ 50%,< 50%,< 50%,< 50%,100 to 1000 nM,100 to 1000 nM,100 to 1000 nM,≥ 1000 nM,≤ 100 nM,≤ 100 nM,100 to 1000 nM,,EC50 [18]: 100 to 1000 nM
COC(=O)c1cc2cc(NCc3cc(NC(=O)c4cccc(C(C)C)c4)ccc3C)cnc2[nH]1 [OR0610],< 50%,≥ 50%,< 50%,≥ 50%,< 50%,≥ 50%,< 50%,≥ 50%,≥ 50%,< 50%,< 50%,< 50%,100 to 1000 nM,100 to 1000 nM,100 to 1000 nM,≥ 1000 nM,100 to 1000 nM,≤ 100 nM,≤ 100 nM,,EC50 [18]: 100 to 1000 nM
COC(=O)c1cc2cc(NCc3cc(NC(=S)c4ccc(CN5CCN(C)CC5)c(C(F)(F)F)c4)ccc3C)cnc2[nH]1 [OR0626],< 50%,,,,< 50%,,,≥ 50%,,≥ 50%,,,,,≥ 1000 nM,,≥ 1000 nM,100 to 1000 nM,≥ 1000 nM,≥ 1000 nM,
COC(=O)c1cc2cc(NCc3cc(NC(=O)c4ccc(CN5CCC(O)CC5)c(C(F)(F)F)c4)ccc3C)cnc2[nH]1 [OR0636],< 50%,≥ 50%,< 50%,< 50%,< 50%,≥ 50%,< 50%,≥ 50%,≥ 50%,< 50%,< 50%,< 50%,100 to 1000 nM,≥ 1000 nM,100 to 1000 nM,≥ 1000 nM,100 to 1000 nM,100 to 1000 nM,100 to 1000 nM,,EC50 [18]: 100 to 1000 nM; EC50 [22]: ≥ 1000 nM
COC(=O)c1cc2cc(NCc3cc(NC(=O)c4cc(Nc5cc[nH]n5)cc(C(F)(F)F)c4)ccc3C)cnc2[nH]1 [OR0642],< 50%,≥ 50%,< 50%,≥ 50%,< 50%,< 50%,< 50%,≥ 50%,≥ 50%,< 50%,< 50%,< 50%,100 to 1000 nM,≥ 1000 nM,100 to 1000 nM,≥ 1000 nM,≤ 100 nM,≤ 100 nM,≤ 100 nM,,EC50 [18]: 100 to 1000 nM
COC(=O)c1cc2cc(NCc3cc(NC(=O)Nc4ccncc4)ccc3C)cnc2[nH]1 [OR0952],< 50%,,,,< 50%,< 50%,,< 50%,,< 50%,,,,,≥ 1000 nM,,≥ 1000 nM,≥ 1000 nM,≥ 1000 nM,≥ 1000 nM,
COC(=O)c1cc2cc(NC(=O)c3cccc(CNC(=S)c4cccc(C(F)(F)F)c4)c3)cnc2[nH]1 [OR1011],< 50%,,,,< 50%,< 50%,,< 50%,,< 50%,,,,,≥ 1000 nM,,≥ 1000 nM,≥ 1000 nM,≥ 1000 nM,≥ 1000 nM,
COC(=O)c1cc2cc(NCc3cc(NC(=S)Nc4cccc(C(F)(F)F)c4)ccc3C)cnc2[nH]1 [OR1016],< 50%,,,,< 50%,,,< 50%,,,,,,,≥ 1000 nM,,100 to 1000 nM,100 to 1000 nM,≥ 1000 nM,≥ 1000 nM,
COC(=O)c1cc2cc(NCc3cc(NC(=O)c4ccccc4OC)ccc3C)cnc2[nH]1 [OR1062],≥ 50%,≥ 50%,,,< 50%,≥ 50%,,< 50%,,< 50%,,,,,≥ 1000 nM,,≥ 1000 nM,100 to 1000 nM,100 to 1000 nM,≥ 1000 nM,
COC(=O)c1cc2cc(NCc3cccc(NC(=O)c4ccc(CN5CCN(C)CC5)c(C(F)(F)F)c4)c3)cnc2[nH]1 [OR1067],< 50%,≥ 50%,,,≥ 50%,≥ 50%,,≥ 50%,,≥ 50%,,,,,100 to 1000 nM,,≥ 1000 nM,,≤ 100 nM,100 to 1000 nM,
